Reference: patent publication US20090239884A1, “Methods of Treating Inflammation” (priority 2006, published 2009)

How the values were obtained:
EAE in C57BL/6 mice = assay: experimental autoimmune encephalomyelitis (EAE), clinical score; type: in vivo, mouse
Protocol: Induction of active EAE and clinical evaluation. Active EAE is induced in 8-12 weeks old mice by immunization with MOG p35-55 in complete Freund's adjuvant. 200 μg of MOG p35-55 peptide and 800 μg of killed mycobacterium tuberculosis are emulsified in CFA and injected subcutaneously by means of four injections over the flanks. In addition, 200 ng of pertussis toxin dissolved in 200 μl PBS is injected i.p. at the day of immunization and again the day after. Mice are monitored daily for clinical signs of EAE, and scored according to the following criteria: 0, no signs of disease; 0.5, partial tail weakness; 1, limp tail; 1.5, limp tail and slight slowing of righting; 2, partial hind limb weakness and/or marked slowing of righting; 2.5, dragging of hind limb(s) without complete paralysis; 3, complete paralysis of at least one hind limb; 4, severe forelimb weakness; 5, moribund or dead. Daily clinical scores are calculated and presented as the average (mean) and standard error of the mean (SEM) of all individual disease scores in each group. Statistical comparison of disease severity by clinical score is accomplished by calculating the mean clinical score for each mouse from day of disease onset to day 60 and performing a non-parametric Wilcoxon analysis.
[…] 8. DP is the only inhibitor known to block PDE 8 in addition to other PDEs. […]

PDE8 = conditions: read-out: Potency (IC50) PDE8; cited from earlier work

**Q.** Which “development of clinical signs of EAE” value (EAE in C57BL/6 mice; 2 mg DP per mouse per day, day 0 until day 23) does the source give for `OCCN(CCO)c1nc(N2CCCCC2)c2nc(N(CCO)CCO)nc(N3CCCCC3)c2n1` [Dipyridamole, 2,2′,2″,2′″-(4,8-di(piperidin-1-yl)pyrimido[5,4-d]pyrimidine-2,6-diyl)bis(azanetriyl)tetraethanol] here?
**A.** profoundly suppressed

**Q.** What about the “clinical severity of EAE compared with vehicle” value (EAE in C57BL/6 mice; treatment after onset (mean score grade 1), 2×1 mg/mouse/day i.p.) of the same compound?
**A.** significantly decreased

**Q.** And the IC50 (PDE8)?
**A.** 4 to 9 µM
